Assay results as given in PubChem BioAssay (NCI).
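Growth conditions: 96-well plates. Treatment: test compound, 48 hours, 5 concentrations. Analysis: linear interpolation between bracketing concentrations; unreached endpoints set to highest concentration. TGI denotes the concentration required for complete inhibition of growth.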

Tests used:
Assay in all cases: NCI anticancer screen, dose series, 48 h
HOP-62 NSCLC = system: HOP-62 NSCLC
SF-539 CNS = system: SF-539 CNS
OVCAR-3 ovarian = system: OVCAR-3 ovarian
HCT-15 colon = system: HCT-15 colon
OVCAR-4 ovarian = system: OVCAR-4 ovarian
KM12 colon = system: KM12 colon
IGROV1 ovarian = system: IGROV1 ovarian
MDA-MB-231 breast = system: MDA-MB-231 breast
PC-3 prostate = system: PC-3 prostate
BT-549 breast = system: BT-549 breast

COC(=O)C12Oc3ccc(-c4ccc5c(c4O)C(=O)C4=CCC(C)C(O)C4(C(=O)OC)O5)c(O)c3C(=O)C1=CCC(C)C2O (stereo unspecified)
TGI (HOP-62 NSCLC): 4.12 µM
TGI (SF-539 CNS): 11.9 µM
TGI (OVCAR-3 ovarian): 2.9 µM
TGI (HCT-15 colon): 3.46 µM
TGI (OVCAR-4 ovarian): 6.1 µM
TGI (KM12 colon): 3.26 µM
TGI (IGROV1 ovarian): 3.81 µM

Cc1ccc2c(=O)cc(-c3csc4ccccc34)[nH]c2n1
TGI (HOP-62 NSCLC): 21.8 µM
TGI (MDA-MB-231 breast): 0.0836 µM
TGI (SF-539 CNS): < 0.0133 µM
TGI (OVCAR-3 ovarian): < 0.01 µM
TGI (HCT-15 colon): 13.4 µM
TGI (PC-3 prostate): 0.0198 µM
TGI (BT-549 breast): 22.3 µM
TGI (KM12 colon): 0.86 µM
TGI (IGROV1 ovarian): 16.7 µM

COc1ccc2c(c1)O[C@@H]1C(O)Oc3cc(OC)c(OC)cc3[C@]1(O)C2=O (stereo partly specified)
TGI (HOP-62 NSCLC): > 100 µM
TGI (MDA-MB-231 breast): > 100 µM
TGI (SF-539 CNS): > 100 µM
TGI (OVCAR-3 ovarian): > 100 µM
TGI (HCT-15 colon): > 100 µM
TGI (PC-3 prostate): > 100 µM
TGI (BT-549 breast): 91 µM
TGI (OVCAR-4 ovarian): > 100 µM
TGI (KM12 colon): > 100 µM
TGI (IGROV1 ovarian): > 100 µM

CC(=O)NNc1nc(C)c(C(/C=C/c2ccc3c(c2)OCO3)=N/Nc2ccccc2)s1
TGI (HOP-62 NSCLC): > 100 µM
TGI (MDA-MB-231 breast): > 100 µM
TGI (SF-539 CNS): > 100 µM
TGI (OVCAR-3 ovarian): > 100 µM
TGI (HCT-15 colon): > 100 µM
TGI (PC-3 prostate): > 100 µM
TGI (BT-549 breast): > 100 µM
TGI (OVCAR-4 ovarian): > 100 µM
TGI (KM12 colon): > 100 µM
TGI (IGROV1 ovarian): > 100 µM

COc1ccc(N[C@H](CS(=O)c2ccc(C)cc2)c2ccc(F)cc2)cc1 (stereo partly specified)
TGI (HOP-62 NSCLC): > 100 µM
TGI (MDA-MB-231 breast): > 100 µM
TGI (SF-539 CNS): 56.7 µM
TGI (OVCAR-3 ovarian): > 100 µM
TGI (HCT-15 colon): > 100 µM
TGI (PC-3 prostate): > 100 µM
TGI (BT-549 breast): > 100 µM
TGI (OVCAR-4 ovarian): > 100 µM
TGI (KM12 colon): > 100 µM
TGI (IGROV1 ovarian): 47.4 µM

COc1cc2c3cc1Oc1c(O)c(OC)cc4c1[C@H](Cc1ccc(cc1)Oc1cc(ccc1O)C[C@H]3N(C)CC2)N(C)CC4
TGI (HOP-62 NSCLC): 43.8 µM
TGI (MDA-MB-231 breast): 22.8 µM
TGI (SF-539 CNS): 10.9 µM
TGI (OVCAR-3 ovarian): 28.5 µM
TGI (HCT-15 colon): 59.5 µM
TGI (PC-3 prostate): 27.1 µM
TGI (BT-549 breast): 28.4 µM
TGI (OVCAR-4 ovarian): 48 µM
TGI (KM12 colon): 23.7 µM
TGI (IGROV1 ovarian): 36.1 µM

Oc1ccc(Cl)cc1C1=N/C(=N\CN2CCN(C/N=C3/N=C(c4cc(Cl)ccc4O)CC(c4ccccc4)N3)CC2)NC(c2ccccc2)C1 (stereo unspecified)
TGI (HOP-62 NSCLC): > 100 µM
TGI (MDA-MB-231 breast): > 100 µM
TGI (SF-539 CNS): > 100 µM
TGI (OVCAR-3 ovarian): 55.4 µM
TGI (HCT-15 colon): > 100 µM
TGI (PC-3 prostate): > 100 µM
TGI (BT-549 breast): > 100 µM
TGI (OVCAR-4 ovarian): 78 µM
TGI (KM12 colon): > 100 µM
TGI (IGROV1 ovarian): > 100 µM

CC(C)(CN)CN
TGI (HOP-62 NSCLC): > 100 µM
TGI (MDA-MB-231 breast): > 100 µM
TGI (SF-539 CNS): > 100 µM
TGI (OVCAR-3 ovarian): > 100 µM
TGI (HCT-15 colon): > 100 µM
TGI (PC-3 prostate): > 100 µM
TGI (BT-549 breast): > 100 µM
TGI (OVCAR-4 ovarian): > 100 µM
TGI (KM12 colon): > 100 µM
TGI (IGROV1 ovarian): > 100 µM

CCCCOC(=O)CNC(=O)OCCCCC#CC#CCCCCOC(=O)NCC(=O)OCCCC
TGI (HOP-62 NSCLC): > 100 µM
TGI (SF-539 CNS): > 100 µM
TGI (OVCAR-4 ovarian): > 100 µM
TGI (KM12 colon): > 100 µM
TGI (IGROV1 ovarian): > 100 µM

OC(C1CCC=NN1C(O)(C(F)(F)F)C(F)(F)F)(C(F)(F)F)C(F)(F)F (stereo unspecified)
TGI (HOP-62 NSCLC): > 10 µM
TGI (MDA-MB-231 breast): > 10 µM
TGI (SF-539 CNS): > 10 µM
TGI (OVCAR-3 ovarian): > 10 µM
TGI (HCT-15 colon): > 10 µM
TGI (PC-3 prostate): > 10 µM
TGI (BT-549 breast): > 10 µM
TGI (OVCAR-4 ovarian): > 10 µM
TGI (KM12 colon): > 10 µM
TGI (IGROV1 ovarian): > 10 µM

N=C(N)SCCON1C(=O)c2ccccc2C1=O
TGI (HOP-62 NSCLC): > 100 µM
TGI (MDA-MB-231 breast): > 100 µM
TGI (SF-539 CNS): > 100 µM
TGI (OVCAR-3 ovarian): > 100 µM
TGI (HCT-15 colon): > 100 µM
TGI (PC-3 prostate): > 100 µM
TGI (BT-549 breast): > 100 µM
TGI (OVCAR-4 ovarian): > 100 µM
TGI (KM12 colon): > 100 µM
TGI (IGROV1 ovarian): > 100 µM
